This note sets out measurements from patent US6881710B1, “Personal care products based upon surfactants based upon alkyl polyglucoside quaternary compounds” (Colonial Chemical Inc., priority 2004, dated 2005).

The nature of series [1]: modified Ross-Miles Foam Test. It is filed as physicochemical. The following applies: 1% active in water, 66-67 °C, shaken ten times; time point not stated; higher is better. The source says: Sodium Lauryl sulfate is one of the most commonly used anionic surfactants. While it is a good detergent and produces large volume of foam, it is irritating and has no conditioning properties. In fact, it strips the oil from hair leaving the hair dry and fly away. Compounds of the present invention compare favorably with sodium lauryl sulfate in foam levels, and detergency, but also are non-irritating, conditioning and provide self-preserving properties. This coupled with the fact that they are derived from natural sugars, makes them the perfect single surfactant for personal care formulation. The following compounds were evaluated at 1% active in water. The higher the foam, the better.
The foaming properties of the compositions were also evaluated by a modified “Ross-Miles Foam Test”. This compares the foaming tendencies of different products or surfactants in water at various temperatures.
The test is carried out as follows: • 1. 500 ml. of water (the water should be representative of the system^1) was added to a 1000 ml. graduated cylinder having a cylinder diameter 65 mm. Then 18.0-ppm ortho phosphate is added to the cylinder as a buffer. The test is carried out at a temperature of 66° C. to 67° C. • 2. The concentration tested was 1% by weight solids. • 3. Then cylinder with contents is shaken vertically at the specified temperature ten times (the times shaken equals the number of cycles). After the tenth time, the initial foam height (t=0) is recorded in ml. Then the foam level at t=5 minutes and t=30 minutes is recorded. Results

Series [2] is described as follows: salon half head study of conditioning (combability and softness) and wet comb of washed hair. It is filed as in vivo. The following applies: 5% solution; rated by the test person, scale 1 (poor) to 5 excellent. As to the method:
Conditioning was studied. The wet comb properties of hair washed in the salon in half head studies was conducted. Evaluation of the dry hair was also evaluated. A 5% solution of the composition of the present invention was evaluated. The person having the test run was asked to evaluate the following samples for combability and softness of the hair. The scale was 1 (poor) to 5 excellent.

In series [3] the test system is Pseudomonas aeruginosa; Staphylococcus aureus; Candida albicans; Aspergillus niger. Briefly: antimicrobial zone inhibition technique, activity summary over four test organisms. It is filed as cell-based. The settings on record: 0.50% by weight in water; for Comments (antimicrobial activity in words): B = bacteria, Y = yeast, M = mold; for Score (sum of the four organism scores): lower score = greater activity. As to the method: (§1) A study was conducted to determine the antimicrobial capability of four (4) SugaQuat (alkyl polyglucoside) variations utilizing the zone inhibition technique. The test materials were evaluated for gross antimicrobial activity against a series of four (4) test organisms: Pseudomonas aeruginosa (Gram-negative bacteria); Staphylococcus aureus (Gram-positive bacteria); Candida albicans (yeast) and Aspergillus niger (mold) utilizing the zone inhibition technique.
(§2) • Sodium Lauryl Sulfate (0.50% by weight concentration in water). • Sodium Laureth 2 Sulfate (0.50% by weight concentration in water). • Example 3 (0.50% by weight concentration in water). • Example 4 (0.50% by weight concentration in water). • Example 8 (0.50% by weight concentration in water). • Example 9 (0.50% by weight concentration in water). • Example 7 (0.50% by weight concentration in water). Activity Summary • SCORING: • 1=Excellent; 2=Very Good; 3=Good; 4=OK (moderate); 6=Poor; 8=No Activity Control Compounds

A short description of series [4]: salon half head study of detergency (cleanliness of washed hair). It is filed as in vivo. The settings on record: 5% solution; rated by the test person, scale 1 (poor) to 5 excellent. The protocol:
Detergency was also studies. The cleanliness of hair washed in the salon in half head studies was conducted. A 5% solution of the composition of the present invention was evaluated. The person having the test run was asked to evaluate the following samples for cleanliness of the hair. The scale was 1 (poor) to 5 excellent.

The subject of series [5] is Staphylococcus aureus (Gram-positive bacteria). Briefly: antimicrobial zone inhibition technique. It is filed as cell-based. Set-up: key: 1=Excellent; 2=Very Good; 3=Good; 4=OK (moderate); 6=Poor; 8=No Activity. The following applies: 0.50% by weight in water; lower score = greater activity. The protocol: as §1, §2
The test system of series [6] is Pseudomonas aeruginosa (Gram-negative bacteria). Nature of the series: antimicrobial zone inhibition technique. The settings on record: 0.50% by weight in water; lower score = greater activity. It is filed as cell-based. The arrangement: key: 1=Excellent; 2=Very Good; 3=Good; 4=OK (moderate); 6=Poor; 8=No Activity. The protocol:
as §1, §2

The test system of a further series is Candida albicans (yeast). Briefly: antimicrobial zone inhibition technique. It is filed as cell-based. The arrangement: key: 1=Excellent; 2=Very Good; 3=Good; 4=OK (moderate); 6=Poor; 8=No Activity. The following applies: 0.50% by weight in water; lower score = greater activity. As to the method: as §1, §2
A further series concerns Aspergillus niger (mold). Briefly: antimicrobial zone inhibition technique. It is filed as cell-based. Set-up: key: 1=Excellent; 2=Very Good; 3=Good; 4=OK (moderate); 6=Poor; 8=No Activity. The following applies: 0.50% by weight in water; lower score = greater activity. As to the method:
as §1, §2

Take Sodium laureth 3-sulfate: the “Foam Level” value in series [1] worked out at 720 mL.
`CCCCCCCCCCCCOS(=O)(=O)[O-].[Na+]` [Sodium Lauryl Sulfate]: the “Foam Level” value in series [1] amounted to 900 mL. For the same molecule, in series [2], the Conditioning was determined as 1 and the “Wet Comb” value turned out to be 1. Moreover, in series [3], the “Comments (antimicrobial activity in words)” value is on record as “No activity” and the “Score (sum of the four organism scores)” value is 32. In addition, the “Detergency Result (cleanliness of the hair)” value in series [4] came to 5. This molecule also gave a Sa activity score in series [5] of 8. This molecule also registered a Psa activity score in series [6] of 8. Further, the Ca activity score with Candida albicans (yeast) was determined as 8. Also, the An activity score in the series on Aspergillus niger (mold) was found to be 8.
For Sodium laureth 1-sulfate, in series [1], the “Foam Level” value came to 750 mL.
Regarding Sodium Laureth 2 Sulfate, in series [1], the “Foam Level” value turned out to be 770 mL. Moreover, in series [2], the Conditioning is reported as 1 and the “Wet Comb” value amounted to 1. Further, in series [3], the “Comments (antimicrobial activity in words)” value is recorded as “No activity” and the “Score (sum of the four organism scores)” value came out at 32. Besides, the “Detergency Result (cleanliness of the hair)” value in series [4] is given as 4. Besides, the Sa activity score in series [5] is on record as 8. The Psa activity score in series [6] is 8. Moreover, the Ca activity score in the series on Candida albicans (yeast) amounted to 8. In addition, the An activity score in the series on Aspergillus niger (mold) turned out to be 8.
